The NIST ThermoML archive (doi:10.1021/je400076x)
Numbers after ± are expanded uncertainties.

Settings: Crystal; DTA

For `CCCCn1cc[n+](C)c1.[Cl-]` [1-butyl-3-methylimidazolium chloride], the Normal melting temperature was 60.30 ± 5 °C.
